“Also recorded” adds a separate entry of the source. Like-named read-outs stand apart in the source and are kept apart here.
Columns and labels:
nonprostate cancer cells = assay: Proliferation of nonprostate cancer cells (general statements); assay type: cell-based; settings: for inhibition of (nonprostate cancer) cell proliferation: other channel and transport inhibitors
[1] = tested on: Primary human sarcomas liposarcoma; assay: Cell growth of primary human liposarcoma (surface covered by monolayer); assay type: cell-based; settings: 10 μM CLT; 48 hours
Experimental: (§1) Measurement of cell density in culture plates: Cells of a specific test cell line are seeded at precisely the same low density in culture plates and incubated for approximately 12 hours in DME 10% serum, or other culture medium depending on the cell line tested. […] Alternatively, the cells can be detached from the plate by incubation with trypsin (Sigma, Co.) […] in ethylene diaminotetraacetic acid (ECTA; Sigma, Co); then the cells are counted in an hemocytometer chamber (Fisher, Pittsburgh, Pa.).
(§2) Primary human sarcomas rabdomyosarcoma and liposarcoma: Fresh human cancer specimens were obtained from human subjects undergoing a surgical procedure; the tumors were treated with colagenase to dissociate the cells which were then seeded at low density (1×10^5 in small culture chambers containing hybridomas grade culture medium supplemented with 5% fetal calf serum; after 12 hrs., when the cells were attached to the surface of the culture chambers, CLT (10 μM) or carrier (ethanol) were added *triplicate chambers). After 48 hours cell growth was assessed by optic miscroscopy calculating the surface of the culture flask covered by the cell monolayer.

[2] = tested on: human lung adenocarcinoma cells; assay: DNA synthesis ([3H]thymidine incorporation) in human lung adenocarcinoma cells; assay type: cell-based; settings: FIG. 1
Experimental: (§3) The inhibitory effect of clotrimazol (CLT) on cell proliferation was assessed in cancerous cells. Quiescent human colon adenocarcinoma and human lung adenocarcinoma cells were stimulated with 5% fetal calf serum and synthesis of DNA was assessed by the incorporation of [3H]thymidine measures 24 hours later. […] The effect was not due to a toxic, non-specific, effect because it was reversed by removing CLT and re-stimulating the cells with 5% fetal calf serum (FIG. 1).

adenocarcinomas in rats = assay: Inhibition of tumor growth in vivo (adenocarcinomas in rats); design: species or system rat
Experimental: The efficacy of CLT was studied in inhibiting the growth of adenocarcinomas in rats. […] Tumors were measured by size and weight on a daily basis, and growth rates were calculated. Nonparametric statistical comparisons were made among the median growth rates of all of the treatment groups.

[3] = tested on: human colon adenocarcinoma cells; assay: DNA synthesis ([3H]thymidine incorporation) in human colon adenocarcinoma cells; assay type: cell-based; settings: FIG. 1
Experimental: as §3

[4] = tested on: rat vascular smooth muscle cells; assay: cells; settings: read-out: inhibition of DNA synthesis
Experimental: (§4) DNA synthesis assessed by the uptake of [3H]thymidine: Cells are grown in either 48 or 96 wells plates (Costar, Cambridge, Mass.) at 10^4 and 0.8 10^3 cells per well, respectively, and grown in Dubelcco's modified Eagle's medium (DME, Gibco, Grand Island, N.Y.) supplemented with 10% heat-inactivated calf serum; they are kept at 37° C. in 5% CO2. When they reach confluence, usually between 3 and 4 days, the medium is replaced with DME 0.5% serum to make them quiescent, and mitogenesis assays are performed 24 hours later.
(§5) Quiescent cells are exposed to a mitogenic stimulus, such as 10% serum, PDGF (Sigma Co. St. Louis, Mo.), bFGF (Upstate Biotechnologies, Lake Placid, N.Y.), or other appropriate mitogen according to the cell line, and 3 hours later 1 μCi/ml of [3H]thymidine (Dupont, Billerica, Mass.) is added to the wells, and the cells maintained at 37° C./5% CO2 for additional 21 hours. Then the cells are washed 3 times with DME medium and the acid-precipitable radioactivity is extracted with cold 10% TCA (Sigma, Co). After neutralization with 0.3N NaOH (Sigma Co.), aliquots are counted in a Packard Tri-Carb Scintillation counter (Packard Instrument, Downer's Grove, Ill.).
Cells were stimulated using 5 μM bFGF.

[5] = tested on: primary human sarcoma cells; assay: bFGF-stimulated DNA synthesis in primary human sarcoma cells; assay type: cell-based; settings: for inhibition of DNA synthesis by other inhibitors of the Ca++ activated K channel: toxins, concentration not given
Experimental: as §2
Other antimycotics were tested for their inhibition of bFGF-stimulated DNA synthesis in the primary human sarcoma cells of Example 3.

[6] = biological target: T1, Ca++ activated K channel of human erythrocytes (Homo sapiens, UniProt O15554); assay: Inhibition of Ca++ activated K channel of human erythrocytes (86Rb influx, K efflux); assay type: cell-based
T1 construct: Preparation of Human Red Blood Cells: Blood is collected in heparinized tubes; endogenous in cells; host or cells: washed human erythrocytes (red blood cells) from heparinized blood
Experimental: Preparation of Human Red Blood Cells: Blood is collected in heparinized tubes and centrifuged in a Sorvall centrifuge (RB 5B, Du Pont Instruments,Newtown, Conn.) at 5° C. for 10 minutes at 3000 g. Plasma and buffy coat are carefully removed and the cells washed four times with a washing solution containing 150 mM choline chloride (Sigma Co), 1 mM MgC12 (Sigma Co), 10 mM Tris-MOPS (Sigma, Ca), pH 7.4 at 4° C.(CWS). An aliquot of cells is then suspended in an approximately equal volume of CWS, and from this original cell suspension hematocrit (Hct) and hemoglobin (optical density at 540 nm) are determined.
Methods to Test Inhibitors of the Ca^++ Activated K: To test inhibitors of the Ca^++ activated K channel, the channel is activated using the calcium ionophore A23187 (Chalbiochem).
By Atomic Absorption Spectrometry: Washed human erythrocyte are suspended at an hematocrit≈1% in CWS containing 0.150 mM CaCl2 (Sigma Co) Aliquots of 1 ml are removed at 0, 3 and 5 minutes, layered on top of 0.3 ml of the oil n-butyl phthalate (Fair Lane, N.J.) placed in an Eppendorf microtube (Fisher) and then centrifuged in a micro centrifuge for 20 seconds. At time 5.30 minutes, ionophore A23187 (1 μM final concentration) is added and samples removed and spin down through phthalate at times 6, 7, 8 and 9 minutes. The supernatant on top of the oil layer is removed and its K+ concentration is measured by atomic absorption spectrometry using a Perking Elmer model 5000 spectrometer (Perkin Elmer Corp., Norwolk, Conn.). The efflux of K+ (mmol/l cells/h) in the absence and presence of the inhibitor is calculated from the slope of the curves relating the K+ concentration in the supernatants (mmol/l cells) vs. time (min.).
By radioisotopic measurement of ^86 Rb influx. The incubation medium is the same but contains 2 mM KCl and 1 μCi/ml of the radioactive tracer ^86 Rb. After spinning the samples through the phthalate layer, the tubes are rapidly frozen (-80° C.) by immersion in methanol-dry ice, the tips of the tubes containing the packed red cells cut, and counted in a Packard Gamma Counter.
The inhibitory effect of (CLT) on the Ca^++ activated K channel of human erythrocytes was assessed in the presence of 60 μmol A23187/L cell and 100 μMCaCl2.
Other antimycotics were tested for their inhibition of the Ca++ activated 86Rb influx human erythrocytes.

[7] = tested on: Primary human sarcomas rabdomyosarcoma; assay: Cell growth of primary human rabdomyosarcoma (surface covered by monolayer); assay type: cell-based; settings: 10 μM CLT; 48 hours
Experimental: as §1, §2

[8] = tested on: rat vascular smooth muscle cells
Experimental: as §4, §5
Cells were stimulated using 5 μM bFGF.

[9] = tested on: testicular and adrenal synthesis of steroid hormones, including testosterone; settings: cited from earlier work
17-20 desmolase = settings: background; cited from earlier work
[10] = tested on: 21- and/or 11-hydroxylase; settings: background; cited from earlier work
17-hydroxylase = settings: background; cited from earlier work
[11] = 10 μM CLT, 5% fetal calf serum stimulation, 24 hours
[12] = re-stimulated with 5% fetal calf serum
[13] = 60 μmol A23187/L cell and 100 μM CaCl2
[14] = other antimycotics, human erythrocytes, FIG. 4

Compound: N=C(N)NC(=O)c1nc(Cl)c(N)nc1N [amiloride]
- inhibition of (nonprostate cancer) cell proliferation (nonprostate cancer cells): do not inhibit cell proliferation

Compound: Clc1ccccc1C(c1ccccc1)(c1ccccc1)n1ccnc1 [clotrimazole]
- growth of sarcoma cells [1]: completely arrested
- inhibition of growth [1]: More than 95%
- inhibition of DNA synthesis [2, 11]: completely inhibited
- reversibility of effect on removing CLT and re-stimulating (not due to a toxic, non-specific effect) [2, 12]: reversed
- median tumor growth rate (adenocarcinomas in rats; 100 mg/kg by mouth in peanut oil): significant reduction
- median tumor growth rate (adenocarcinomas in rats; 200 mg/kg by mouth in peanut oil): significant reduction
- inhibition of DNA synthesis [3, 11]: completely inhibited
- reversibility of effect on removing CLT and re-stimulating (not due to a toxic, non-specific effect) [3, 12]: reversed
- inhibition at 1 µM [4]: 45%
- order of inhibitory potency (DNA synthesis) [5]: CLT more potent than ECZ
- inhibition of bFGF-stimulated DNA synthesis ([5]; 10 µM): inhibited DNA synthesis
- inhibition of Ca++ activated 86Rb influx [6, 13]: markedly inhibited
- inhibition of K efflux [6, 13]: markedly inhibited
- order of inhibitory potency (Ca++ activated 86Rb influx) ([6]; human erythrocytes, FIG. 4): clotrimazole more than miconazole
- growth of sarcoma cells [7]: completely arrested
- inhibition of growth [7]: More than 95%
- dose dependence of inhibition of DNA synthesis ([8]; 0.001 μM, 0.1 μM, 1 μM and 10 μM): dose dependent
- inhibition of DNA synthesis ([8]; 10 μM, bFGF stimulation): complete inhibition

Compound: Clc1ccc(COC(Cn2ccnc2)c2ccc(Cl)cc2Cl)cc1 (stereo not shown) [econazole]
- inhibition of bFGF-stimulated DNA synthesis ([5]; 10 μM, FIG. 3): inhibited DNA synthesis
- order of inhibitory potency (DNA synthesis) ([5]; 10 μM, FIG. 3): ECZ more potent than MCZ
- order of inhibitory potency (Ca++ activated 86Rb influx) ([6]; human erythrocytes, FIG. 4): both of these were more than econazole

Compound: OC(Cn1cncn1)(Cn1cncn1)c1ccc(F)cc1F [fluconazole]
- inhibition of Ca++ activated 86Rb influx [6, 14]: no inhibition

Compound: CC(=O)N1CCN(c2ccc(OCC3COC(Cn4ccnc4)(c4ccc(Cl)cc4Cl)O3)cc2)CC1 (stereo not shown) [ketoconazole]
- inhibition of testicular and adrenal synthesis of steroid hormones, including testosterone ([9]; in high doses): inhibits testicular and adrenal synthesis of steroid hormones, including testosterone
- plasma testosterone ([9]; prostate cancer treatment): reduces plasma testosterone to castration levels
- inhibition of 17-20 desmolase (17-20 desmolase): inhibition
- inhibition of growth/proliferation of nonprostate cancer cells (nonprostate cancer cells; nonprostate cancer cells tested by the applicants): ineffective; also recorded: not useful for inhibiting proliferation
- inhibition of 21- and/or 11-hydroxylase [10]: marked inhibition
- blockade of 17-hydroxylase (17-hydroxylase): partial blockade

Compound: Cc1ncc([N+](=O)[O-])n1CCO [metronidazole]
- inhibition of Ca++ activated 86Rb influx [6, 14]: only marginal

Compound: Clc1ccc(COC(Cn2ccnc2)c2ccc(Cl)cc2Cl)c(Cl)c1 (stereo not shown) [miconazole]
- inhibition of bFGF-stimulated DNA synthesis ([5]; 10 μM, FIG. 3): inhibited DNA synthesis
- order of inhibitory potency (DNA synthesis) ([5]; 10 μM, FIG. 3): ECZ more potent than MCZ
- order of inhibitory potency (Ca++ activated 86Rb influx) ([6]; human erythrocytes, FIG. 4): clotrimazole more than miconazole; and both of these were more than econazole

Compound: Cc1ncc([N+](=O)[O-])n1CC(O)CCl (stereo not shown) [ornidazole]
- inhibition of Ca++ activated 86Rb influx [6, 14]: no inhibition

Compound: C[C@@H]1O[C@@H](O[C@H]2C[C@@H](O)[C@]3(CO)[C@H]4[C@H](O)C[C@]5(C)[C@@H](C6=CC(=O)OC6)CC[C@]5(O)[C@@H]4CC[C@]3(O)C2)[C@H](O)[C@H](O)[C@H]1O [ouabain]
- inhibition of (nonprostate cancer) cell proliferation (nonprostate cancer cells): do not inhibit cell proliferation

Compound: CCS(=O)(=O)CCn1c([N+](=O)[O-])cnc1C [tinidazole]
- inhibition of Ca++ activated 86Rb influx [6, 14]: no inhibition

Compound: charybdotoxin
- inhibition of (nonprostate cancer) cell proliferation (nonprostate cancer cells): do not inhibit proliferation
- inhibition of DNA synthesis by other inhibitors of the Ca++ activated K channel [5]: failed to inhibit DNA synthesis

Compound: kaliotoxin: specific inhibitor of the Ca++ activated potassium channel
- inhibition of (nonprostate cancer) cell proliferation (nonprostate cancer cells): do not inhibit proliferation
- inhibition of DNA synthesis by other inhibitors of the Ca++ activated K channel [5]: failed to inhibit DNA synthesis

Reference: patent publication US5633274A, “Cancer treatments” (President and Fellows of Harvard College, priority 1993, dated 1997)
